# Experimental data from patent publication US20230212549A1, “COMPOUNDS COMPRISING A […] LIGAND AND USE THEREOF” (priority 2021, published 2023).
# Numbered stars: 1 amine (or outer) side, 2 acyl side, 3 side chain; on linkers, the order of the positions; unused ones are H or OH. Bridge positions count the residues as written; N and C are the ends. Square brackets hold non-standard residues; d marks the D form. Peptide text beside a SMILES is read from it. * marks the point of attachment. ξ: configuration not given here. X6 = NCCNCC(CNCCN)C(=O)NCCOCCOCCOCCOCCOCCOCCC(=O)NCCCOCCOCCOCCCN*; X1 = NCCNCC(CNCCN)C(=O)N1CCN(CC(=O)NCCCOCCOCCOCCCN*)CC1; Pyridine(3,5-bisCH2) = c1ncc(C[*:2])cc1C[*:1]; mXylylene = c1cc(C[*:1])cc(C[*:2])c1; PEG6 = NCCOCCOCCOCCOCCOCCOCCC(=O)O; Suc = O=C(CCC(=O)[*:2])[*:1]; Nle = CCCC[C@H](N)C(=O)O; X2 = NCCNCC(CNCCN)C(=O)*; ξC = NC(CS)C(=O)O; βAla = NCCC(=O)O
# Assays:
# in vivo = conditions: swiss nude, mouse, iv
# [1] = Radiochemical purity by HPLC of ^99mTc-labeled compounds; format: physicochemical; conditions: 99Tc-labeled compounds
# Method: 100-500 MBq of ^99mTcO4 (in saline) were mixed with 11 μl of 0.5 M phosphate buffer pH 11.5-12.0 and 1.1 μl of 0.1 M trisodium citrate per 100 μl radionuclide solution. […] The mixture was incubated for 30 min at 25-50′° C. At the end of the incubation time, the mixture was neutralized with 3.0 μl 1 M HCl per 10 μl phosphate buffer and TWEEN-20 was added at a final concentration of 0.100.
# [2] = biological target: T1, FAP-expressing human WI-38 fibroblasts (Homo sapiens, UniProt Q12884); assay: Competitive FACS binding assay
# T1 construct: FAP-expressing human WI-38 fibroblasts (ECACC) were cultured in EMEM; host or cells: WI-38 human fibroblasts
# T1 sequence (Q12884 whole entry): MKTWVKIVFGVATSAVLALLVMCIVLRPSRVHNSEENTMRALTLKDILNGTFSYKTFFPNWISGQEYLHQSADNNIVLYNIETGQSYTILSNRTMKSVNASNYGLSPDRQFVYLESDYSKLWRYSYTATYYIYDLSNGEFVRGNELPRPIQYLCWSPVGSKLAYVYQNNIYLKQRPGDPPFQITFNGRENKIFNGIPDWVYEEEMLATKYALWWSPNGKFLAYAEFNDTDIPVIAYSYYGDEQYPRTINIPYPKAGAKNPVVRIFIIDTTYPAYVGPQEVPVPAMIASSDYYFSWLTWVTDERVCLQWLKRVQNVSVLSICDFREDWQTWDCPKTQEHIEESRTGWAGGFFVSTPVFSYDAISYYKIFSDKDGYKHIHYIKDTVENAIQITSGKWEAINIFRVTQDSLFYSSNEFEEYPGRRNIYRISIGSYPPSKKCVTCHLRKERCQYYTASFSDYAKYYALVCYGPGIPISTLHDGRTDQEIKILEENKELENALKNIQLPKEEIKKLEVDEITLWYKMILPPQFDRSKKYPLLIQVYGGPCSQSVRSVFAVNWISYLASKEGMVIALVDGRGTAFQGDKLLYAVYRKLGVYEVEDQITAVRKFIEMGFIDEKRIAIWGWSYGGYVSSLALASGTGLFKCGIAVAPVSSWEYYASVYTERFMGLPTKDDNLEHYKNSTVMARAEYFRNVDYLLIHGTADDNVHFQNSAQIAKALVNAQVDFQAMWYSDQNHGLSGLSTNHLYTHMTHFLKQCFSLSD
# Method: Cells were analyzed in an Attune NxT flow cytometer. […] […].
# Cells were analyzed in an Attune NxT flow cytometer. […]
# Human recombinant FAP [3] = biological target: T2, Human recombinant FAP (Homo sapiens, UniProt Q12884); assay: FRET-based FAP protease activity assay; format: biochemical; parameters: purchased R&D systems 3715-SE
# T2 sequence (Q12884 whole entry): as above
# Human recombinant FAP [4] = biological target: T2, Human recombinant FAP; assay: Surface plasmon resonance (Biacore) assay; format: binding
# [5] = pIC50 Category (activity), Recombinant human FAP
# [6] = pIC50 Category (Activity), FRET-peptide substrate, 37° C.
SMILES,tissue uptake at 1 h (in vivo; blood pool surrogate (BPS)) [%ID/g],tissue uptake at 3 h (in vivo; blood pool surrogate (BPS)) [%ID/g],tissue uptake at 6 h (in vivo; blood pool surrogate (BPS)) [%ID/g],tissue uptake at 1 h (in vivo; kidneys) [%ID/g],tissue uptake at 3 h (in vivo; kidneys) [%ID/g],tissue uptake at 6 h (in vivo; kidneys) [%ID/g],tissue uptake at 1 h (in vivo; tumor) [%ID/g],tissue uptake at 3 h (in vivo; tumor) [%ID/g],tissue uptake at 6 h (in vivo; tumor) [%ID/g],HPLC Area % appr. 4 h post end of synthesis [1] [%],HPLC Area % at end of synthesis [1] [%],IC50 [2] [µM],IC50 (Human recombinant FAP [3]; [5]) [µM],Kd (Human recombinant FAP [4]) [µM],HPLC Area % appr. 4 h post end of synthesis ([1]; (3 h)) [%],IC50 (Human recombinant FAP [3]; [6]) [µM]
"CCCC[C@H](NC(=O)CCC(=O)NCCCOCCOCCOCCCNC(=O)CN1CCN(C(=O)C(CNCCN)CNCCN)CC1)C(=O)N[C@H]1CSCc2cccc(c2)CSC[C@@H](C(=O)NCCC(=O)O)NC(=O)[C@H](Cc2ccccc2)NC(=O)[C@H](CCC(=O)O)NC(=O)[C@H]([C@@H](C)O)NC(=O)[C@@H]2CCCN2C(=O)[C@@H]2CCCN2C1=O [3BP-4784, N4Ac-PPAc-Ttds-Nle-[Cys(3MeBn)-Pro-Pro-Thr-Glu-Phe-Cys]-Bal-OH] ({X1-Suc}-[Nle]CPPTEFC[βAla]-OH; linker 2-8 via mXylylene)",0.9,0.63,0.38,1.61,1.23,1.01,7.65,7.43,7.44,94.9,96.6,< 0.01,< 0.01,< 0.01,–,–
"CCCC[C@H](NC(=O)CCC(=O)NCCCOCCOCCOCCCNC(=O)C(CNCCN)CNCCN)C(=O)N[C@H]1CSCc2cncc(c2)CSCC(C(=O)O)NC(=O)[C@H](Cc2ccccc2)NC(=O)[C@H](CCC(N)=O)NC(=O)[C@H]([C@@H](C)O)NC(=O)[C@@H]2CCCN2C(=O)[C@@H]2CCCN2C1=O (stereo partly drawn) [3BP-4549, N4Ac-Ttds-Nle-[Cys(3Lut)-Pro-Pro-Thr-Gln-Phe-Cys]-OH]",0.18,0.03,0.01,4.22,1.82,0.58,6.04,4.25,1.68,–,99.3,0.01 to 0.0794,< 0.01,0.01 to 0.0794,97.6,–
"CCCC[C@H](NC(=O)CCOCCOCCOCCOCCOCCOCCNC(=O)C(CNCCN)CNCCN)C(=O)N[C@H]1CSCc2cncc(c2)CSCC(C(=O)O)NC(=O)[C@H](Cc2ccccc2)NC(=O)[C@H](CCC(=O)O)NC(=O)[C@H]([C@@H](C)O)NC(=O)[C@@H]2CCCN2C(=O)[C@@H]2CCCN2C1=O (stereo partly drawn) [3BP-4773, N4Ac-PEG6-Nle-[Cys(3Lut)-Pro-Pro-Thr-Glu-Phe-Cys]-OH] ({X2-PEG6}-[Nle]CPPTEF[ξC]-OH; linker 2-8 via Pyridine(3,5-bisCH2))",0.25,0.09,0.06,6.64,4.71,3.12,6.19,6.19,5.42,–,95.8,0.01 to 0.0794,0.01 to 0.0794,0.01 to 0.0794,–,–
"CCCC[C@H](NC(=O)CCC(=O)NCCCOCCOCCOCCCNC(=O)CN1CCN(C(=O)C(CNCCN)CNCCN)CC1)C(=O)N[C@H]1CSCc2cccc(c2)CSC[C@@H](C(=O)N[C@@H](CC(=O)O)C(=O)O)NC(=O)[C@H](Cc2ccccc2)NC(=O)[C@H](CCC(=O)O)NC(=O)[C@H]([C@@H](C)O)NC(=O)[C@@H]2CCCN2C(=O)[C@@H]2CCCN2C1=O [3BP-4785, N4Ac-PPAc-Ttds-Nle-[Cys(3MeBn)-Pro-Pro-Thr-Glu-Phe-Cys]-Asp-OH] ({X1-Suc}-[Nle]CPPTEFCD-OH; linker 2-8 via mXylylene)",0.92,0.64,0.48,3.47,2.14,1.63,4.2,4.14,4.32,93.8,95.3,< 0.01,< 0.01,–,–,–
"CCCC[C@H](NC(=O)CCC(=O)NCCCOCCOCCOCCCNC(=O)CN1CCN(C(=O)C(CNCCN)CNCCN)CC1)C(=O)N[C@H]1CSCc2cccc(c2)CSC[C@@H](C(=O)NCCC(=O)O)NC(=O)[C@H](Cc2ccccc2)NC(=O)[C@H](CCC(N)=O)NC(=O)[C@H]([C@@H](C)O)NC(=O)[C@@H]2CCCN2C(=O)[C@@H]2CCCN2C1=O [3BP-4960, N4Ac-PPAc-Ttds-Nle-[Cys(3MeBn)-Pro-Pro-Thr-Gln-Phe-Cys]-Bal-OH]",0.74,0.47,0.17,1.96,1.21,1.21,10.5,12.8,12.1,92.3,95.2,< 0.01,< 0.01,< 0.01,–,–
"CCCCNC(=O)N[C@H]1CSCc2cc(CSCCNC(=O)C(CNCCN)CNCCN)cc(c2)CSC[C@@H](C(=O)O)NC(=O)[C@H](Cc2ccccc2)NC(=O)[C@H](CCC(N)=O)NC(=O)[C@H]([C@@H](C)O)NC(=O)[C@@H]2CCCN2C(=O)[C@@H]2CCCN2C1=O [3BP-4534, nBu-CAyl-[Cys(tMeBn(N4Ac-AET))-Pro-Pro-Thr-Gln-Phe-Cys]-OH]",1.7,1.19,0.78,2.06,1.4,1.09,5.67,6.85,7.68,–,98.6,< 0.01,–,–,97.5,< 0.01
"CCCC[C@H](NC(=O)CCOCCOCCOCCOCCOCCOCCNC(=O)C(CNCCN)CNCCN)C(=O)N[C@H]1CSCc2cncc(c2)CSCC(C(=O)O)NC(=O)[C@H](Cc2ccccc2)NC(=O)[C@H](CCC(N)=O)NC(=O)[C@H]([C@@H](C)O)NC(=O)[C@@H]2CCCN2C(=O)[C@@H]2CCCN2C1=O (stereo partly drawn) [3BP-4550, N4Ac-PEG6-Nle-[Cys(3Lut)-Pro-Pro-Thr-Gln-Phe-Cys]-OH]",0.06,0.03,0.04,0.92,0.62,0.38,6.14,4.91,2.91,–,100,0.1 to 0.794,0.01 to 0.0794,0.01 to 0.0794,98.0,–
"CCCC[C@H](NC(=O)CCC(=O)NCCCOCCOCCOCCCNC(=O)CN1CCN(C(=O)C(CNCCN)CNCCN)CC1)C(=O)N[C@H]1CSCc2cncc(c2)CSCC(C(=O)O)NC(=O)[C@H](Cc2ccccc2)NC(=O)[C@H](CCC(=O)O)NC(=O)[C@H]([C@@H](C)O)NC(=O)[C@@H]2CCCN2C(=O)[C@@H]2CCCN2C1=O (stereo partly drawn) [3BP-4775, N4Ac-PPAc-Ttds-Nle-[Cys(3Lut)-Pro-Pro-Thr-Glu-Phe-Cys]-OH] ({X1-Suc}-[Nle]CPPTEF[ξC]-OH; linker 2-8 via Pyridine(3,5-bisCH2))",0.21,0.18,0.04,8.98,6.31,4.28,7.88,6.28,4.55,88.1,86.4,0.01 to 0.0794,0.01 to 0.0794,0.01 to 0.0794,–,–
"CCCCNC(=O)N[C@H]1CSCc2cc(cc(CN3CCN(C(=O)C(CNCCN)CNCCN)CC3)c2)CSC[C@@H](C(=O)O)NC(=O)[C@H](Cc2ccccc2)NC(=O)[C@H](CCC(N)=O)NC(=O)[C@H]([C@@H](C)O)NC(=O)[C@@H]2CCCN2C(=O)[C@@H]2CCCN2C1=O [3BP-4533, nBu-CAyl-[Cys(tMeBn(N4Ac-PP))-Pro-Pro-Thr-Gln-Phe-Cys]-OH]",1.72,1.46,0.86,6.04,4.43,3.04,5.45,6.27,6.75,–,99.3,< 0.01,–,–,98.2,< 0.01
"CCCC[C@H](NC(=O)CCC(=O)NCCCOCCOCCOCCCNC(=O)CCOCCOCCOCCOCCOCCOCCNC(=O)C(CNCCN)CNCCN)C(=O)N[C@H]1CSCc2cccc(c2)CSC[C@@H](C(=O)O)NC(=O)[C@H](Cc2ccccc2)NC(=O)[C@H](CCC(=O)O)NC(=O)[C@H]([C@@H](C)O)NC(=O)[C@@H]2CCCN2C(=O)[C@@H]2CCCN2C1=O [3BP-4780, N4Ac-PEG6-Ttds-Nle-[Cys(3MeBn)-Pro-Pro-Thr-Glu-Phe-Cys]-OH] ({X6-Suc}-[Nle]CPPTEFC-OH; linker 2-8 via mXylylene)",0.81,0.61,0.43,8.11,6.14,4.36,6.71,7.01,7.92,92.3,95.0,0.01 to 0.0794,< 0.01,–,–,–
